In ChEMBL document CHEMBL1201862, “PubChem BioAssay data set” (2004):
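Grown in 96-well plates, cells were treated for 48 hours with each compound at five concentrations. Insufficient inhibition: endpoint recorded as highest concentration tested. GI50 marks 50% less growth.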 The source made the active and inactive calls. No stated cut-off is given here; in the data, active = GI50 up to about 1.1 µM and inactive = higher.

How the values were obtained:
Test in all cases: inhibition of tumour cell growth, NCI panel, 48 h
[1] = system: SNB-75
[2] = system: KM12
[3] = system: NCI-H460
[4] = system: A498
[5] = system: A549
[6] = system: SK-MEL-5
[7] = system: LOX IMVI
[8] = system: OVCAR-8
[9] = system: HT-29
[10] = system: HL-60
[11] = system: SK-OV-3
[12] = system: SF-539
[13] = system: EKVX
[14] = system: OVCAR-5
[15] = system: NCI-H522
[16] = system: SNB-19
[17] = system: UO-31
[18] = system: HCT-116
[19] = system: RPMI-8226
[20] = system: LXFL 529

Measured: GI50

COc1ccc2c(c1)OCCc1cn[nH]c1-2
inactive: [1] 28.4 µM | [2] 38.9 µM | [3] 31.6 µM | [4] 28.6 µM | [5] 53.8 µM | [6] 29.2 µM | [7] 31.3 µM | [8] 55.6 µM | [9] 34.8 µM | [10] 13.3 µM | [11] 29.7 µM | [12] 32.7 µM | [13] 4.44 µM | [14] 35.7 µM | [15] 29 µM | [16] 88.7 µM | [17] 32.6 µM | [18] 42.4 µM

CCOC(=O)C1(CO)CSCCSC1
inactive: [1] > 100 µM | [2] > 100 µM | [3] > 100 µM | [4] > 100 µM | [5] > 100 µM | [6] > 100 µM | [7] > 100 µM | [8] > 100 µM | [9] > 100 µM | [11] > 100 µM | [15] > 100 µM | [16] > 100 µM | [17] > 100 µM | [18] > 100 µM

CSc1nc2c(ncn2C2OC(CO)C(O)C(O)C2O)c(=O)[nH]1 (centres undefined)
inactive: [1] > 100 µM | [2] > 100 µM | [3] > 100 µM | [4] > 100 µM | [5] > 100 µM | [6] > 100 µM | [7] > 100 µM | [8] > 100 µM | [9] > 100 µM | [19] > 100 µM | [10] > 100 µM | [11] > 100 µM | [12] > 100 µM | [13] > 100 µM | [14] > 100 µM | [15] > 100 µM | [16] > 100 µM | [17] > 100 µM | [18] > 100 µM

CC(C)c1cccc(C(C)C)c1NC(=S)Nc1ccccc1
inactive: [1] 36.5 µM | [2] > 100 µM | [3] > 100 µM | [4] > 100 µM | [5] > 100 µM | [6] 48 µM | [7] 79.4 µM | [8] > 100 µM | [9] > 100 µM | [20] > 100 µM | [19] > 100 µM | [10] 6.81 µM | [11] > 100 µM | [12] > 100 µM | [13] > 100 µM | [14] > 100 µM | [16] > 100 µM | [17] > 100 µM | [18] > 100 µM

O=S(=O)(CF)OCCCCOS(=O)(=O)CF
inactive: [1] 27.7 µM | [3] 23.8 µM | [4] > 100 µM | [6] > 100 µM | [7] 97.1 µM | [8] > 100 µM | [9] > 100 µM | [20] > 100 µM | [19] > 100 µM | [10] 13.2 µM | [11] > 100 µM | [12] > 100 µM | [13] > 100 µM | [15] > 100 µM | [16] 95.3 µM | [17] > 100 µM | [18] > 100 µM

C=CCOC1OC(CS(=O)(=O)O)C(OC(C)=O)C(OC(C)=O)C1OC(C)=O (centres undefined)
inactive: [1] > 100 µM | [2] > 100 µM | [3] > 100 µM | [4] > 100 µM | [6] > 100 µM | [7] > 100 µM | [8] > 100 µM | [9] > 100 µM | [19] > 100 µM | [10] > 100 µM | [11] > 100 µM | [14] > 100 µM | [16] > 100 µM | [17] > 100 µM | [18] > 100 µM

CCc1nnc(-c2nsc3ccccc23)s1
inactive: [1] 35.9 µM | [2] > 100 µM | [3] > 100 µM | [5] > 100 µM | [6] > 100 µM | [7] > 100 µM | [8] > 100 µM | [9] > 100 µM | [20] > 100 µM | [19] 45.4 µM | [10] > 100 µM | [12] > 100 µM | [13] 23 µM | [14] > 100 µM | [16] > 100 µM | [17] 34 µM | [18] > 100 µM
